The target in one assay is αllbβ3 receptor (Homo sapiens, UniProt P05106+P08514). Description: similar competitive assay with purified αllbβ3 receptor and 125I-echistatin (specificity index versus αvβ3). Particulars: IC50 αllbβ3 / IC50 αvβ3. It counts as binding. The source says:
The specificity index, which is a measure of the relative binding affinity for αvβ3 versus αllbβ3, may be determined by dividing the IC50 value for αllbβ3by the IC50 value for αvβ3.

The next assay addresses T1, αvβ3 receptor (Homo sapiens, UniProt P05106+P06756).
T1 construct: αvβ3 receptor (purified from human placenta); from tissue; host or cells: human placenta
Description: competition radioligand binding assay, 125I-echistatin to purified αvβ3 receptor. Particulars: inhibition of specific binding of 125I-echistatin (0.05 nM), 3 hour incubation at room temperature.

Eleven molecules from patent publication US6204282A, “Benzimidazole compounds that are vitronectin receptor antagonists” (Schering Corporation, priority 1999, dated 2001) can be followed below.

In general, IC50 refers to the midpoint of a concentration-inhibition curve. Read a low IC50 as inhibition by little substance. As for `CN(C)C(=O)N(Cc1ccc(C(=O)NC[C@H](NC(=O)OCc2ccccc2)C(=O)O)cc1)Cc1nc2ccccc2[nH]1` [Example 5-41], the “SPECIFICITY αIIb β3/αvβ3 (specificity index)” value at αllbβ3 receptor was 19. The molecule further returned a half-maximal inhibitory concentration (IC50) at αvβ3 receptor of 2.8 nM. The molecule `COCC(=O)N(Cc1cccc(C(=O)NC[C@H](NC(=O)OCc2ccccc2)C(=O)O)c1)Cc1nc2ccccc2[nH]1` [Example 5-10] came in with an IC50 at αvβ3 receptor of roughly 500 nM. Still for that read-out and setting: for `COCC(=O)N(Cc1ccc(C(=O)NC[C@H](NC(=O)OCc2ccccc2)C(=O)O)cc1)Cc1nc2ccccc2[nH]1` [Example 5-5] the value was 0.42 nM; for `CC(=O)N(Cc1ccc(C(=O)NC[C@H](NC(=O)OCc2ccccc2)C(=O)O)cc1)Cc1nc2ccccc2[nH]1` [Example 5-3], 1.9 nM.

In the case of `CC(C)NC(=O)N(Cc1ccc(C(=O)NC[C@H](NC(=O)OCc2ccccc2)C(=O)O)cc1)Cc1nc2ccccc2[nH]1` [Example 5-30], the “SPECIFICITY αIIb β3/αvβ3 (specificity index)” value on αllbβ3 receptor is 296. This molecule also showed an IC50 on αvβ3 receptor of 2.3 nM. At αvβ3 receptor, `CC(=O)N(Cc1cccc(C(=O)NC[C@H](NC(=O)OCc2ccccc2)C(=O)O)c1)Cc1nc2ccccc2[nH]1` [Example 5-8] returned an IC50 of roughly 500 nM. As to `O=C(N[C@@H](CNC(=O)c1ccc(CN(Cc2nc3ccccc3[nH]2)C(=O)C(F)(F)F)cc1)C(=O)O)OCc1ccccc1` [Example 5-12], the “SPECIFICITY αIIb β3/αvβ3 (specificity index)” value at αllbβ3 receptor is reported as 87. Besides, the IC50 on αvβ3 receptor was determined as 5.6 nM.

With `O=C(N[C@@H](CNC(=O)c1cccc(CN(Cc2nc3ccccc3[nH]2)C(=O)c2ccc(Cl)cc2)c1)C(=O)O)OCc1ccccc1` [Example 5-7], on αvβ3 receptor, the IC50 was roughly 500 nM. Take `O=C(N[C@@H](CNC(=O)c1cccc(CN(Cc2nc3ccccc3[nH]2)C(=O)c2ccc3c(c2)OCO3)c1)C(=O)O)OCc1ccccc1` [Example 5-9]: on αvβ3 receptor, the IC50 was roughly 500 nM. `CCCC(=O)N(Cc1ccc(C(=O)NC[C@H](NC(=O)OCc2ccccc2)C(=O)O)cc1)Cc1nc2ccccc2[nH]1` [Example 5-11]: on αllbβ3 receptor, the “SPECIFICITY αIIb β3/αvβ3 (specificity index)” value was 70. This molecule displayed an IC50 at αvβ3 receptor of 3.4 nM. `O=C(N[C@@H](CNC(=O)c1ccc(CN(Cc2nc3ccccc3[nH]2)C(=O)c2ccc3c(c2)OCO3)cc1)C(=O)O)OCc1ccccc1` [Example 5-4] came in with a 50% inhibitory concentration (IC50) at αvβ3 receptor of 2.9 nM.
